Source: ChEMBL document CHEMBL1275561, “In vitro activities of doripenem, a new broad-spectrum carbapenem, against recently collected clinical anaerobic isolates, with emphasis on the Bacteroides fragilis group” (2008)

The compounds below were run on Clostridium perfringens (assay: Antimicrobial activity against Clostridium perfringens assessed as resistant isolates by agar dilution method).
Format: functional
`C[C@@H](O)[C@H]1C(=O)N2C(C(=O)O)=C(S[C@@H]3CN[C@H](C(=O)Nc4cccc(C(=O)O)c4)C3)[C@H](C)[C@H]12` gave an Activity of 0%. With `CC1(C)S[C@@H]2[C@H](NC(=O)[C@H](N)c3ccccc3)C(=O)N2[C@H]1C(=O)O` [AMPICILLIN] the Activity was 0%. With `CO[C@@]1(NC(=O)Cc2cccs2)C(=O)N2C(C(=O)O)=C(COC(N)=O)CS[C@@H]21` [CEFOXITIN] the Activity was 0%. Work on `CCC[C@@H]1C[C@@H](C(=O)N[C@@H]([C@H]2O[C@H](SC)[C@H](O)[C@@H](O)[C@H]2O)[C@H](C)Cl)N(C)C1` [CLINDAMYCIN] yielded an Activity of 0%. For `C[C@@H](O)[C@H]1C(=O)N2C(C(=O)O)=C(S[C@@H]3CN[C@H](CNS(N)(=O)=O)C3)[C@H](C)[C@H]12` [DORIPENEM], the Activity was 0%. `C[C@@H](O)[C@H]1C(=O)N2C(C(=O)O)=C(SCCNC=N)C[C@H]12` [IMIPENEM ANHYDROUS] was tested, and the Activity was 0%. With `CC(=O)NC[C@H]1CN(c2ccc(N3CCOCC3)c(F)c2)C(=O)O1` [LINEZOLID] the Activity was 0%. In the case of `C[C@@H](O)[C@H]1C(=O)N2C(C(=O)O)=C(S[C@@H]3CN[C@H](C(=O)N(C)C)C3)[C@H](C)[C@H]12` [MEROPENEM], the Activity is reported as 0%. With `Cc1ncc([N+](=O)[O-])n1CCO` [METRONIDAZOLE] the Activity was 7.8%. With `CCN1CCN(C(=O)N[C@@H](C(=O)N[C@@H]2C(=O)N3[C@@H]2SC(C)(C)[C@@H]3C(=O)O)c2ccccc2)C(=O)C1=O` [PIPERACILLIN] the Activity was 0%. `CN[C@H](CC(C)C)C(=O)N[C@H]1C(=O)N[C@@H](CC(N)=O)C(=O)N[C@H]2C(=O)N[C@H]3C(=O)N[C@H](C(=O)N[C@H](C(=O)O)c4cc(O)cc(O)c4-c4cc3ccc4O)[C@H](O)c3ccc(c(Cl)c3)Oc3cc2cc(c3O[C@@H]2O[C@H](CO)[C@@H](O)[C@H](O)[C@H]2O[C@H]2C[C@](C)(N)[C@H](O)[C@H](C)O2)Oc2ccc(cc2Cl)[C@H]1O` [VANCOMYCIN] was tested, and the Activity was 0%.
